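Step 1: Grow cells in 96-well plates. Step 2: Expose to compound for 48 hours at 5 concentrations. Step 3: Interpolate endpoints linearly; if unreached, use highest concentration. Here, GI50 denotes the concentration required for 50% inhibition of growth. The concentration for full growth arrest is given as TGI.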
Experiments:
Assay in all cases: inhibition of tumour cell growth, NCI panel, 48 h
[1] = tested on: HCT-116 colon
[2] = tested on: A498 renal
[3] = tested on: LOX IMVI melanoma
[4] = tested on: TK-10 renal
[5] = tested on: UACC-62 melanoma
[6] = tested on: UO-31 renal
[7] = tested on: HL-60(TB) leukemia
[8] = tested on: T-47D breast
[9] = tested on: M14 melanoma
[10] = tested on: HCT-15 colon

Row | SMILES | TGI [1] | TGI [2] | TGI [3] | TGI [4] | TGI [5] | TGI [6] | TGI [7] | TGI [8] | TGI [9] | TGI [10] | GI50 [1] | GI50 [2] | GI50 [3] | GI50 [4] | GI50 [5] | GI50 [6] | GI50 [7] | GI50 [8] | GI50 [9] | GI50 [10]
1 | N#Cc1cc2cc3c4c(c2oc1=O)CCCN4CCC3 | > 100 µM | > 100 µM | > 100 µM | > 100 µM | > 100 µM | > 100 µM | > 100 µM | > 100 µM | > 100 µM | > 100 µM |  |  |  |  |  |  |  |  |  | 
2 | C[C@@H]1CN(Cc2ccc(/C=C/c3n[nH]c4ccc5nc(-c6cn[nH]c6C(F)(F)F)c6c(c5c34)CCCC6)cc2)C[C@H](C)O1 | 11.3 µM | 6.51 µM | 10.8 µM | 17.7 µM | 19.3 µM | 14 µM | 28.5 µM | 26.4 µM | 14.6 µM | 11.3 µM | 1.37 µM | 1.21 µM | 2.33 µM | 4.92 µM | 5.73 µM | 2.15 µM | 6.32 µM | 6.66 µM | 3.19 µM | 1.76 µM
3 | BrP(NC1CCCCCC1)(c1ccccc1)(c1ccccc1)c1ccccc1 | > 100 µM | 7.26 µM | 10.4 µM | 21.3 µM | 15.9 µM | 17.4 µM | 13.8 µM | 7.76 µM | > 100 µM | 46.3 µM |  |  |  |  |  |  |  |  |  | 
4 | O=C1C=C(N2CC2)c2ccccc2C1=O | 2.9 µM | 2.84 µM | 13 µM | 3.64 µM | 3.25 µM | 2.87 µM | 6.54 µM | 4.17 µM | 3.04 µM | 3.79 µM | 1.47 µM | 1.36 µM | 2.11 µM | 2.15 µM | 1.79 µM | 1.51 µM | 2.68 µM | 1.88 µM | 1.63 µM | 1.85 µM
5 | O=C1OCC2=C1C(c1cccc(F)c1)c1cc3c(cc1N2CCO)OCCO3 (stereo not given) | > 50 µM | 0.438 µM | > 50 µM | > 50 µM | > 50 µM | > 50 µM | 0.387 µM | > 50 µM | > 50 µM | > 50 µM | 0.204 µM | 0.111 µM | 0.265 µM | 0.363 µM | 0.112 µM | 0.276 µM | 0.137 µM | 0.203 µM | 0.105 µM | 0.193 µM
6 | NC1=CC(=O)C(=O)c2cccnc21 | 12.5 µM | 22.7 µM | 4.38 µM | 68.2 µM | 3.79 µM | 17.7 µM | 9.08 µM | 9.73 µM | 6.29 µM | 23.4 µM | 3 µM | 10.2 µM | 1.7 µM | 29.3 µM | 1.83 µM | 2.48 µM | 2.8 µM | 3.68 µM | 1.83 µM | 5.37 µM
7 | CC(C)(C)c1ccc(C(=O)N/N=C/c2ccc(O)cc2O)cc1 | 11.5 µM | 6.09 µM | 0.975 µM | > 53.5 µM | 3.2 µM | 2.28 µM | 8.27 µM | 32.6 µM | 9.83 µM | 2.12 µM | 0.281 µM | 1.27 µM | 0.224 µM | 0.73 µM | 0.363 µM | 0.24 µM | 0.411 µM | 0.786 µM | 0.409 µM | 0.325 µM
8 | Clc1ccccc1-c1nc2ccccc2[nH]1 | > 100 µM | > 100 µM | > 100 µM | > 100 µM | > 100 µM | > 100 µM | > 100 µM | > 100 µM | > 100 µM | > 100 µM | > 100 µM | 59.2 µM | > 100 µM | > 100 µM | > 100 µM | 90.8 µM | > 100 µM | > 100 µM | > 100 µM | > 100 µM
9 | CC12C=CC(C)(O1)C1C2c2ccccc2S1(=O)=O (stereo not given) | > 100 µM | > 100 µM | > 100 µM | > 100 µM | > 100 µM | > 100 µM | > 100 µM | > 100 µM | > 100 µM | > 100 µM | 47.9 µM | > 100 µM | 46.6 µM | > 100 µM | > 100 µM | > 100 µM | > 100 µM | 95.5 µM | 25 µM | 38.4 µM
10 | COC(=O)[C@]12CC[C@@H](C)[C@H](C)[C@@H]1C1=CC[C@@H]3[C@@]4(C)C(c5ncon5)=C[C@@](C)(CO)C4=CC[C@@]3(C)[C@]1(C)CC2 | 3.2 µM | 3.42 µM | 2.97 µM | 5.36 µM | 4.02 µM | 3.2 µM | 5.04 µM | 5.86 µM | 4.88 µM | 4.08 µM | 1.68 µM | 1.69 µM | 1.62 µM | 2.17 µM | 1.89 µM | 1.69 µM | 2.13 µM | 1.99 µM | 2.07 µM | 1.91 µM
11 | Cn1c2ccccc2c2cc(-c3ccccc3)c3c(c21)C(=O)C=CC3=O | 41.4 µM | 48.7 µM | 34.7 µM | 32 µM | 44.7 µM | 42.9 µM | 42.3 µM | 49.9 µM | 47.9 µM | 42.1 µM |  |  |  |  |  |  |  |  |  | 
12 | COc1ccc(/C=C/c2nc(N3CCOCC3)c3cc(F)c(F)cc3n2)cc1OC | > 100 µM | > 100 µM | > 100 µM | > 100 µM | > 100 µM | > 100 µM | > 100 µM | 9.72 µM | 26.8 µM | > 100 µM | 3.53 µM | 3.41 µM | 5.07 µM | 4.84 µM | 3.55 µM | 3.65 µM | 4 µM | 1.49 µM | 2.75 µM | 3 µM
13 | COc1cc(/C=C/C(=O)c2c(C)n([O-])c3cc(C)c(C)cc3[n+]2=O)cc(OC)c1OC | 38.3 µM | 37.7 µM | 29.2 µM | 31.2 µM | 37.9 µM | 32.3 µM | 61.7 µM | 73.7 µM | 60.2 µM | 25.6 µM | 8.08 µM | 12.1 µM | 11.9 µM | 14.8 µM | 15.5 µM | 15.4 µM | 12.1 µM | 20.5 µM | 16.1 µM | 10.3 µM

From PubChem BioAssay (NCI)
